Measured values published in the NIST ThermoML archive (doi:10.1021/je900290w).

Assay: cn = amount concentration of the nth substance listed, in mol/dm3

CCCCCCCCCCCCCCCCn1cc[n+](C)c1.[Br-] [1-hexadecyl-3-methylimidazolium bromide] + O
surface tension liquid-gas [mN/m]
Conditions | 278.15 K | 288.15 K | 298.15 K | 308.15 K | 318.15 K | 328.15 K
c1 = 5e-06 | 69.16 | 66.26 | 63.93 | 61.53 | 58.5 | 55.05
c1 = 2e-05 | 63.91 | 61.84 | 60 | 58.48 | 54.53 | 51.85
c1 = 0.0001 | 56.17 | 52.62 | 51.14 | 49.46 | 47.36 | 45.42
c1 = 0.0002 | 50.9 | 48.63 | 46.77 | 45.39 | 42.7 | 42.13
c1 = 0.0003 | 46.66 | 43.95 | 43.38 | 41.17 | 39.84 | 39.44
c1 = 0.0004 | 42.78 | 41.32 | 39.38 | 38.02 | 37.93 | 38
c1 = 0.0005 | 39.25 | 37.45 | 37.26 | 36.21 | 36.75 | 37.07
c1 = 0.0008 | 38.25 | 37.54 | 37.37 | 36.14 | 36.11 | 36.2
c1 = 0.0011 | 38.38 | 37.4 | 37.09 | 36.28 | 36.18 | 36.25
c1 = 0.002 | 38.11 | 37.87 | 37.19 | 36.97 | 36.12 | 36.15
c1 = 0.004 | 37.61 | 37.33 | 37.21 | 36.37 | 36.04 | 35.98

CCCCCCCCCCCCCCn1cc[n+](C)c1.[Br-] [1-methyl-3-tetradecylimidazolium bromide] + O
surface tension liquid-gas [mN/m]
Conditions | c1 = 5e-05 | c1 = 0.0001 | c1 = 0.0003 | c1 = 0.0005 | c1 = 0.001 | c1 = 0.002 | c1 = 0.004 | c1 = 0.006 | c1 = 0.008 | c1 = 0.01
278.15 K | 64.69 | 64.07 | 61.72 | 55.17 | 50.32 | 41.28 | 38.44 | 38.68 | 38.88 | 38.88
288.15 K | 62.69 | 62.07 | 59.72 | 53.17 | 48.32 | 40.28 | 37.94 | 38.18 | 38.38 | 38.38
298.15 K | 61.26 | 60.88 | 57.1 | 52.79 | 47.37 | 39.48 | 37.81 | 37.73 | 37.57 | 37.57
308.15 K | 59.5 | 58.59 | 54.93 | 51.51 | 45.26 | 39.15 | 37.81 | 37.51 | 37.67 | 37.6
318.15 K | 57.16 | 55.92 | 52.9 | 49.56 | 43.88 | 39.15 | 37.12 | 37.13 | 37.12 | 37.13
328.15 K | 54.16 | 52.7 | 50.17 | 46.39 | 42.75 | 38.28 | 36.2 | 36.32 | 36.58 | 36.45

CCCCCCCCCCCCn1cc[n+](C)c1.[Br-] [1-dodecyl-3-methylimidazolium bromide] + O
surface tension liquid-gas [mN/m]
Conditions | c1 = 0.0001 | c1 = 0.0005 | c1 = 0.0015 | c1 = 0.005 | c1 = 0.01 | c1 = 0.02 | c1 = 0.03 | c1 = 0.04 | c1 = 0.05
278.15 K | 64.79 | 61.21 | 56.82 | 45.33 | 37.64 | 37.72 | 37.73 | 37.53 | 37.59
288.15 K | 62.93 | 60.86 | 56.68 | 44.27 | 37.52 | 37.63 | 37.41 | 37.77 | 37.61
298.15 K | 62.21 | 59.84 | 55.19 | 43.81 | 37.45 | 37.41 | 37.15 | 37.23 | 37.26
308.15 K | 60.48 | 58.62 | 55.18 | 44.47 | 37.18 | 37.55 | 37.38 | 37.42 | 37.23
318.15 K | 58.84 | 56.56 | 53.88 | 43.89 | 36.92 | 37.12 | 37.47 | 37.3 | 37.06
328.15 K | 57.61 | 55.07 | 50.63 | 42.36 | 37.64 | 37.03 | 37.16 | 37.06 | 37.09
